Results reported in US11292807B2 (OCEANS LTD., priority 2015, dated 2022).
Several values for one entry are separate records, joined by “and”; a condition that tells them apart may be missing. Equal entries are not always repeated. Where two headings read alike, the source gives them in different places.

How the values were obtained:
cancer cell lines = test: Anti-cancer screening of extracts, fractions and compounds (CIMA assay, bioassay-guided fractionation); assay type: cell-based, human; details: in vitro
Description: Lead crude extracts were fractionated into five fractions by C-18 SPE column separation using 15 ml each of 5% methanol (fraction 1), 25% methanol (fraction 2), 50% methanol (fraction 3), 100% methanol (fraction 4) and […] (fraction 5). Extracts were fractionated and the resulting fractions were evaluated using CIMA assay. Bio-assay guided fractionation provided detailed information regarding the compound(s) responsible for specific bioactivity.

PC3 [1] = test: CIMA assay, cell viability, PC3; details: for Fold change in viability AVG: PC3
MDA-MB [2] = test: cells; details: Homo sapiens, read-out: Average cell viability, MDA-MB
in vitro = details: human, Average cell viability
Description: (§1) Stock solutions of the extracts were prepared in dimethylsulfoxide (DMSO) at 10 mg/mL and stored in 200 μl aliquots at −20° C. until analysis. This preparation ensured that the DMSO delivered to cells in culture never exceeded 1%.
(§2) Prepared extracts were assessed following chronic exposure conditions in which cells were seeded at 2×10^3 cells/well (96 well-plate) and incubated with test compounds for 72 h. Each compound was evaluated over a range of concentrations (0, 10, 25, 50 or 100 μg/ml). Cell proliferation was initially assessed using a standard colorimetric indicator of metabolic activity (CIMA) assay. In this assay, tetrazole reduction was evaluated as a measure of metabolic function that evaluates mitochondrial activity to determine the extent of cell proliferation within a culture. This assay is based on the reduction of yellow tetrazolium salt to purple formazan by mitochondrial reductases enzyme in viable cells, resulting in a color changed that confers a change in absorbance.

[3] = tested on: THP-1 (acute monocytic leukemia); test: CIMA assay, cell viability, THP-1
Description: as §1, §2

A549 (lung carcinoma) = test: CIMA assay (colorimetric indicator of metabolic activity), cell viability, A549; details: for Average cell viability: unit assumed
[4] = tested on: U373 (glioblastoma-astrocytoma); test: CIMA assay, cell viability, U373; details: for Fold change in viability AVG / Average cell viability: U373
MDA-MB [5] = details: MDA-MB
[6] = tested on: SKOV3 (ovarian adenocarcinoma); test: CIMA assay, cell viability, SKOV3; details: for Fold change in viability AVG: SKOV
[7] = tested on: CCD1079SK (fibroblast, noncancerous but proliferating); test: CIMA assay, cell viability, CCD1079SK; details: for Fold change in viability AVG / Average cell viability: CCD
Description: as §1, §2

PC3 [8] = tested on: PC3
[9] = tested on: MCF7 (mammary gland adenocarcinoma); test: CIMA assay, cell viability, MCF7; assay type: cell-based, human; details: SDS 5% control
Description: as §1, §2

[10] = tested on: SKOV3 (ovarian adenocarcinoma)

## CO[C@H]1CC(C)(C)C(/C=C/C(C)=C/C=C/C(C)=C/C=C/C=C(C)/C=C/C=C(C)/C=C/[C@H]2C(C)=C[C@@H](O)CC2(C)C)=C(C)C1=O [C]
Cancer cell lines
  anti-cancer activity (in words): anti-cancer activity

## CCCCC/C=C\C/C=C\CCCCCCCC(=O)O [Compound 20, linoleic acid]
PC3 [1]; Homo sapiens, PC-3, read-out: Average cell viability, PC3, 1 ug/mL
  viability at 1 µg/mL: 91%
PC3 [1]; Homo sapiens, PC-3, read-out: Average cell viability, PC3, 10 ug/mL
  viability at 10 µg/mL: 97%
PC3 [1]; Homo sapiens, PC-3, read-out: Average cell viability, PC3, 50 ug/mL
  viability at 50 µg/mL: 11%
PC3 [1]; Homo sapiens, PC-3, read-out: Average cell viability, PC3, 100 ug/mL
  viability at 100 µg/mL: 6%
PC3 [1]; PC3, sample at 1 ug/mL
  PC3 AVG: 0.94
PC3 [1]; PC3, sample at 10 ug/mL
  PC3 AVG: 1.00
PC3 [1]; PC3, sample at 50 ug/mL
  PC3 AVG: 0.12
PC3 [1]; PC3, sample at 100 ug/mL
  PC3 AVG: 0.06
PC3 [1]; 1 ug/mL
  Fold change in viability AVG: 0.94
PC3 [1]; 10 ug/mL
  Fold change in viability AVG: 1.00
PC3 [1]; 50 ug/mL
  Fold change in viability AVG: 0.12
PC3 [1]; 100 ug/mL
  Fold change in viability AVG: 0.06
MDA-MB [2]; 1 ug/mL
  viability at 1 µg/mL: 100%
MDA-MB [2]; 10 ug/mL
  viability at 10 µg/mL: 95%
MDA-MB [2]; 50 ug/mL
  viability at 50 µg/mL: 17%
MDA-MB [2]; 100 ug/mL
  viability at 100 µg/mL: 15%
In vitro
  viability at 72 h, 1 ug/mL: 93%
  viability at 72 h, 10 ug/mL: 97%
  viability at 72 h, 50 ug/mL: 13%
  viability at 72 h, 100 ug/mL: 6%
[3]; Homo sapiens, THP-1, read-out: Average cell viability, THP-1, 1 ug/mL
  viability at 1 µg/mL: 91%
[3]; Homo sapiens, THP-1, read-out: Average cell viability, THP-1, 10 ug/mL
  viability at 10 µg/mL: 91%
[3]; Homo sapiens, THP-1, read-out: Average cell viability, THP-1, 50 ug/mL
  viability at 50 µg/mL: 21%
[3]; Homo sapiens, THP-1, read-out: Average cell viability, THP-1, 100 ug/mL
  viability at 100 µg/mL: 17%
[3]; THP-1, sample at 1 ug/mL
  THP-1 AVG: 1.04
[3]; THP-1, sample at 10 ug/mL
  THP-1 AVG: 1.03
[3]; THP-1, sample at 50 ug/mL
  THP-1 AVG: 0.24
[3]; THP-1, sample at 100 ug/mL
  THP-1 AVG: 0.19
[3]; THP-1, 1 ug/mL
  Fold change in viability AVG: 1.04
[3]; THP-1, 10 ug/mL
  Fold change in viability AVG: 1.03
[3]; THP-1, 50 ug/mL
  Fold change in viability AVG: 0.24
[3]; THP-1, 100 ug/mL
  Fold change in viability AVG: 0.19
A549 (lung carcinoma); A549, sample at 1 ug/mL
  A549 AVG: 1.11
A549 (lung carcinoma); A549, sample at 10 ug/mL
  A549 AVG: 1.12
A549 (lung carcinoma); A549, sample at 50 ug/mL
  A549 AVG: 0.66
A549 (lung carcinoma); A549, sample at 100 ug/mL
  A549 AVG: 0.13
A549 (lung carcinoma); A549, 1 ug/mL
  Fold change in viability AVG: 1.11
A549 (lung carcinoma); A549, 10 ug/mL
  Fold change in viability AVG: 1.12
A549 (lung carcinoma); A549, 50 ug/mL
  Fold change in viability AVG: 0.66
A549 (lung carcinoma); A549, 100 ug/mL
  Fold change in viability AVG: 0.13
A549 (lung carcinoma); Homo sapiens, A549, read-out: Average cell viability, A549, 1 ug/mL
  viability at 1 µg/mL: 95%
A549 (lung carcinoma); Homo sapiens, A549, read-out: Average cell viability, A549, 10 ug/mL
  viability at 10 µg/mL: 96%
A549 (lung carcinoma); Homo sapiens, A549, read-out: Average cell viability, A549, 50 ug/mL
  viability at 50 µg/mL: 56%
A549 (lung carcinoma); Homo sapiens, A549, read-out: Average cell viability, A549, 100 ug/mL
  viability at 100 µg/mL: 11%
[4]; Homo sapiens, U373 MG, read-out: Average cell viability, U373, 1 ug/mL
  viability at 1 µg/mL: 87%
[4]; Homo sapiens, U373 MG, read-out: Average cell viability, U373, 10 ug/mL
  viability at 10 µg/mL: 89%
[4]; Homo sapiens, U373 MG, read-out: Average cell viability, U373, 50 ug/mL
  viability at 50 µg/mL: 7%
[4]; Homo sapiens, U373 MG, read-out: Average cell viability, U373, 100 ug/mL
  viability at 100 µg/mL: 5%
[4]; U373, sample at 1 ug/mL
  U373 AVG: 0.89
[4]; U373, sample at 10 ug/mL
  U373 AVG: 0.90
[4]; U373, sample at 50 ug/mL
  U373 AVG: 0.07
[4]; U373, sample at 100 ug/mL
  U373 AVG: 0.05
[4]; 1 ug/mL
  Fold change in viability AVG: 0.89
[4]; 10 ug/mL
  Fold change in viability AVG: 0.90
[4]; 50 ug/mL
  Fold change in viability AVG: 0.07
[4]; 100 ug/mL
  Fold change in viability AVG: 0.05
MDA-MB [5]; sample at 1 ug/mL
  MDA-MB AVG: 1.09
MDA-MB [5]; sample at 10 ug/mL
  MDA-MB AVG: 1.04
MDA-MB [5]; sample at 50 ug/mL
  MDA-MB AVG: 0.19
MDA-MB [5]; sample at 100 ug/mL
  MDA-MB AVG: 0.16
MDA-MB [5]; 1 ug/mL
  Fold change in viability AVG: 1.09
MDA-MB [5]; 10 ug/mL
  Fold change in viability AVG: 1.04
MDA-MB [5]; 50 ug/mL
  Fold change in viability AVG: 0.19
MDA-MB [5]; 100 ug/mL
  Fold change in viability AVG: 0.16
[6]; Homo sapiens, SK-OV-3, read-out: Average cell viability, SKOV, 1 ug/mL
  viability at 1 µg/mL: 85%
[6]; Homo sapiens, SK-OV-3, read-out: Average cell viability, SKOV, 10 ug/mL
  viability at 10 µg/mL: 88%
[6]; Homo sapiens, SK-OV-3, read-out: Average cell viability, SKOV, 50 ug/mL
  viability at 50 µg/mL: 67%
[6]; Homo sapiens, SK-OV-3, read-out: Average cell viability, SKOV, 100 ug/mL
  viability at 100 µg/mL: 26%
[6]; 1 ug/mL
  Fold change in viability AVG: 0.91
[6]; 10 ug/mL
  Fold change in viability AVG: 0.95
[6]; 50 ug/mL
  Fold change in viability AVG: 0.73
[6]; 100 ug/mL
  Fold change in viability AVG: 0.28
[7]; 1 ug/mL
  Fold change in viability AVG: 1.02
[7]; 10 ug/mL
  Fold change in viability AVG: 1.07
[7]; 50 ug/mL
  Fold change in viability AVG: 0.15
[7]; 100 ug/mL
  Fold change in viability AVG: 0.06

## CO[C@H]1CC(C)(C)C(/C=C/C(C)=C/C=C/C(C)=C/C=C/C=C(C)/C=C/C=C(C)/C=C/C2=C(C)C[C@@H](O)CC2(C)C)=C(C)C1=O [D]
Cancer cell lines
  anti-cancer activity (in words): anti-cancer activity

## CCCCCCCCCCCCOS(=O)(=O)[O-].[Na+] [SDS, reference compound]
PC3 [1]; positive control 250 ug/mL
  Fold change in viability AVG: 0.08
PC3 [1]; positive control SDS 250 ug/mL
  Fold change in viability AVG: 0.08
PC3 [8]
  viability (AVG): 77.3%
[3]; THP-1, SDS 5% control
  AVG (CIMA assay, cell viability): 36.2
  viability (AVG): 20.3
[3]; THP-1, positive control 250 ug/mL
  Fold change in viability AVG: 0.18
[3]; THP-1, positive control 250 ug/ml
  Average cell viability: 16%
[3]; THP-1, positive control SDS 250 ug/mL
  Fold change in viability AVG: 0.18
[3]; THP-1, positive control SDS 250 ug/ml
  Average cell viability: 16%
A549 (lung carcinoma); A549, SDS 5% control
  viability (AVG): 68.7
A549 (lung carcinoma); A549, positive control 250 ug/mL
  Fold change in viability AVG: 0.13
A549 (lung carcinoma); A549, positive control 250 ug/ml
  Average cell viability: 11%
A549 (lung carcinoma); A549, positive control SDS 250 ug/mL
  Fold change in viability AVG: 0.13
A549 (lung carcinoma); A549, positive control SDS 250 ug/ml
  Average cell viability: 11%
[4]; U373, SDS 5% control
  AVG (CIMA assay, cell viability): 58.1 and 44.1
  viability (AVG): 48.4
[4]; positive control 250 ug/mL
  Fold change in viability AVG: 0.05
[4]; positive control 250 ug/ml
  Average cell viability: 4%
[4]; positive control SDS 250 ug/mL
  Fold change in viability AVG: 0.05
[4]; positive control SDS 250 ug/ml
  Average cell viability: 4%
MDA-MB [5]; positive control 250 ug/mL
  Fold change in viability AVG: 0.16
MDA-MB [5]; positive control SDS 250 ug/mL
  Fold change in viability AVG: 0.16
[9]
  AVG (CIMA assay, cell viability): 49.9
  viability (AVG): 44.1
[6]; positive control 250 ug/mL
  Fold change in viability AVG: 0.10
[6]; positive control SDS 250 ug/mL
  Fold change in viability AVG: 0.10
[10]
  AVG (CIMA assay, cell viability): 56.5
  viability (AVG): 78.9%
[7]; CCD1079SK, SDS 5% control
  viability (AVG): 9.4
[7]; CCD10795K, SDS 5% control
  AVG (CIMA assay, cell viability): 11.3
[7]; positive control 250 ug/mL
  Fold change in viability AVG: 0.06
[7]; positive control 250 ug/ml
  Average cell viability: 5%
[7]; positive control SDS 250 ug/mL
  Fold change in viability AVG: 0.06
[7]; positive control SDS 250 ug/ml
  Average cell viability: 5%
